Results reported in ChEMBL document CHEMBL3352543, “Synthesis and structure-activity relationship of novel cinnamamide derivatives as antidepressant agents” (Bioorg Med Chem Lett, 2014).

Experiments:
[1] = system: Mus musculus; test: Toxic CNS activity in C57BL/6 mouse assessed as locomotor activity by measuring exploratory activity counts at 10 mg/kg, ig by open-field test (reference value: 94.50 +/- 6.18 counts); format: toxicity, organism-based; parameters: dose 10 mg/kg, route intragastric; settings: in vivo, po
[2] = system: Mus musculus; test: Antidepressant activity in C57BL/6 mouse assessed as decrease in immobility duration at 10 mg/kg, ig by tail suspension test; format: functional; settings: C57BL/6, Tail, po, route intragastric
[3] = system: Mus musculus; test: Antidepressant activity in ig dosed C57BL/6 mouse assessed as decrease in immobility duration by tail suspension test; format: functional, organism-based
[4] = system: Mus musculus; test: Antidepressant activity in ig dosed C57BL/6 mouse assessed as decrease in immobility duration by forced swim test; format: functional, organism-based
[5] = system: Mus musculus; test: Antidepressant activity in C57BL/6 mouse assessed as decrease in immobility duration at 10 mg/kg, ig by forced swim test; format: functional; settings: C57BL/6, po, route intragastric
[6] = system: Mus musculus; test: Antidepressant activity in C57BL/6 mouse assessed as decrease in immobility duration at 5 mg/kg, ig by forced swim test; format: functional; settings: C57BL/6, po, route intragastric
[7] = system: Mus musculus; test: Antidepressant activity in C57BL/6 mouse assessed as decrease in immobility duration at 2.5 mg/kg, ig by forced swim test; format: functional; settings: C57BL/6, po, route intragastric
[8] = Solubility in water; format: physicochemical; settings: buffer

SMILES	Activity [1]	inhibition in vivo at 10 mg/kg [2] [%]	also measured
CC(C)CNC(=O)c1cc2c(c(C(F)(F)F)c1)OCO2	93.2	33.1	
COc1cc(/C=C/C(=O)NCC(C)C)cc2c1OCO2	100.92	11.7	
CC(C)CNC(=O)/C=C/c1cc2c(c(C(F)(F)F)c1)OCO2	99.4	42.5	inhibition [3]: Dose-dependent effect; inhibition [4]: Dose-dependent effect; inhibition in vivo at 10 mg/kg [5]: 43.5%; inhibition in vivo at 5 mg/kg [6]: 34.4%; inhibition in vivo at 2.5 mg/kg [7]: 20.8%
O=C(/C=C/c1cc2c(c(C(F)(F)F)c1)OCO2)N1CCNCC1	91.54	21.8	solubility [8]: soluble
CC(C)CNC(=O)CCc1cc2c(c(C(F)(F)F)c1)OCO2	86.6	28.8	
CN(C)C(=O)/C=C/c1cc2c(c(C(F)(F)F)c1)OCO2	84	12.6	
CCN(CC)C(=O)/C=C/c1cc2c(c(C(F)(F)F)c1)OCO2	95.3	40.2	
O=C(c1cc2c(c(C(F)(F)F)c1)OCO2)N1CCCCC1	87.4	37.1	
CC(C)CNC(=O)/C=C/c1cc(I)c2c(c1)OCO2	94.42	15.1	
O=C(/C=C/c1cc2c(c(C(F)(F)F)c1)OCO2)N1CCCCC1	83.6	31.5	
CC(C)CNC(=O)/C=C/c1cc2c(c([N+](=O)[O-])c1)OCO2	98	6.4	
CNCCC(Oc1ccc(C(F)(F)F)cc1)c1ccccc1 (stereo not drawn) [FLUOXETINE]	102	39.4	inhibition in vivo at 10 mg/kg [5]: 29%
CC(C)CNC(=O)/C=C/c1cc(Cl)c2c(c1)OCO2	94.75	29.1	
CN1CCN(C(=O)/C=C/c2cc3c(c(C(F)(F)F)c2)OCO3)CC1	86.2	24	solubility [8]: soluble
CC(C)CNC(=O)/C=C/c1ccc2c(c1)OCO2 [FOGARAMIDE]	89.24	13.2	
